The assay deals with Cholinesterase (Homo sapiens) (UniProt P06276). Nature of the assay: Inhibition of butylcholine esterase at 100 ug/mL.

SMILES strings stand for the structures.

Inhibition data for two molecules are collected here from ChEMBL document CHEMBL1158760, “Chromenes from the brown alga Sargassum siliquastrum” (J Nat Prod, 2005).

Sequence of Cholinesterase (Homo sapiens) (P06276 whole entry): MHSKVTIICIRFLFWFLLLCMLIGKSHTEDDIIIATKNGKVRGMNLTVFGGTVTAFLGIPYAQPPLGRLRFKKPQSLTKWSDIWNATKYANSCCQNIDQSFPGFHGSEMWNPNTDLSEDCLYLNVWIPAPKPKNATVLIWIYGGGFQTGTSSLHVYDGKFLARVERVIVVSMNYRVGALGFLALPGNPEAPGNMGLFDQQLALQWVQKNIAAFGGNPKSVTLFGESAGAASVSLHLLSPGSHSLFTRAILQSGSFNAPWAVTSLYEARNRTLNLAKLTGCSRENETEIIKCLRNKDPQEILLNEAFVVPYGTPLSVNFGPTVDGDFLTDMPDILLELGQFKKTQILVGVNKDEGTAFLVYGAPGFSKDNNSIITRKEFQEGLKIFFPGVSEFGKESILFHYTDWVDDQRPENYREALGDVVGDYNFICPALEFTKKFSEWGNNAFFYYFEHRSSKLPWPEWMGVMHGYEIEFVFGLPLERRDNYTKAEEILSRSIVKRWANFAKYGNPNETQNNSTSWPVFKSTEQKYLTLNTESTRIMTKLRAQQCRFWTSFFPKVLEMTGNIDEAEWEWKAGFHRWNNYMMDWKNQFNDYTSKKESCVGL

As a reminder, the inhibition is the relative decrease from the control value, in per cent. `CC(C)=C[C@@H](O)C(=O)/C(C)=C/CC/C(C)=C/CC[C@]1(C)CCc2cc(O)cc(C)c2O1` came in with an inhibition of 82.7%.
Then `CC(C)=CC(C(=O)O)/C(C)=C/CC/C(C)=C/CC[C@]1(C)CCc2cc(O)cc(C)c2O1` (some centres not stated), with 80%.
